The NIST ThermoML archive (doi:10.1021/je901067c)
Numbers after ± are expanded uncertainties.

Key:
[1] = xn = mol fraction of the nth substance listed; conditions: 101 kPa, Liquid; for viscosity: Capillary tube (Ostwald / Ubbelohde) method
[2] = refractive index (Na D-line) (dimensionless); xn = mol fraction of the nth substance listed; conditions: 101 kPa, Liquid, Standard Abbe refractometry

CCC(C)=O [butanone] + CCCCCO
Conditions	mass density, 298.15 K [kg/m3]	mass density, 308.15 K [kg/m3]	mass density, 318.15 K [kg/m3]	refractive index, 298.15 K	refractive index, 308.15 K	refractive index, 318.15 K	viscosity, 298.15 K [mPa·s]	viscosity, 308.15 K [mPa·s]	viscosity, 318.15 K [mPa·s]
[1], x1 = 0.088	809.94 ± 0.55	802.26 ± 0.56	794.44 ± 0.57	–	–	–	2.557 ± 0.019	2.011 ± 0.015	1.608 ± 0.013
[1], x1 = 0.1632	809.15 ± 0.55	801.25 ± 0.56	793.21 ± 0.57	–	–	–	1.997 ± 0.015	1.616 ± 0.013	1.321 ± 0.011
[1], x1 = 0.2427	808.31 ± 0.55	800.16 ± 0.56	791.89 ± 0.57	–	–	–	1.592 ± 0.012	1.304 ± 0.01	1.097 ± 0.009
[1], x1 = 0.3549	807.11 ± 0.55	798.62 ± 0.57	789.99 ± 0.58	–	–	–	1.202 ± 0.01	1.009 ± 0.009	0.852 ± 0.008
[1], x1 = 0.4434	806.15 ± 0.56	797.39 ± 0.57	788.5 ± 0.58	–	–	–	0.983 ± 0.008	0.835 ± 0.008	0.721 ± 0.007
[1], x1 = 0.5597	804.87 ± 0.56	795.76 ± 0.57	786.5 ± 0.58	–	–	–	0.773 ± 0.007	0.667 ± 0.007	0.585 ± 0.006
[1], x1 = 0.6518	803.85 ± 0.56	794.44 ± 0.57	784.88 ± 0.58	–	–	–	0.648 ± 0.006	0.57 ± 0.006	0.5 ± 0.006
[1], x1 = 0.7401	802.85 ± 0.56	793.14 ± 0.57	783.31 ± 0.58	–	–	–	0.554 ± 0.006	0.492 ± 0.006	0.443 ± 0.005
[1], x1 = 0.8477	801.59 ± 0.56	791.54 ± 0.57	781.36 ± 0.59	–	–	–	0.485 ± 0.006	0.427 ± 0.005	0.381 ± 0.005
[1], x1 = 0.9355	800.55 ± 0.56	790.21 ± 0.58	779.73 ± 0.59	–	–	–	0.42 ± 0.005	0.38 ± 0.005	0.345 ± 0.005
[1], x1 = 1	799.76 ± 0.56	789.21 ± 0.58	778.52 ± 0.59	–	–	–	0.391 ± 0.005	0.361 ± 0.005	0.334 ± 0.005
[2], x1 = 0.088	–	–	–	1.4049 ± 0.0009	1.4014 ± 0.0009	1.3976 ± 0.0009	–	–	–
[2], x1 = 0.1632	–	–	–	1.4031 ± 0.0009	1.3997 ± 0.0009	1.3957 ± 0.0009	–	–	–
[2], x1 = 0.2427	–	–	–	1.401 ± 0.0009	1.3976 ± 0.0009	1.3937 ± 0.0009	–	–	–
[2], x1 = 0.3549	–	–	–	1.3979 ± 0.0009	1.3943 ± 0.0009	1.3905 ± 0.0009	–	–	–
[2], x1 = 0.4434	–	–	–	1.3953 ± 0.0009	1.3914 ± 0.0009	1.3878 ± 0.0009	–	–	–
[2], x1 = 0.5597	–	–	–	1.3915 ± 0.0009	1.3873 ± 0.0009	1.3838 ± 0.0009	–	–	–
[2], x1 = 0.6518	–	–	–	1.3883 ± 0.0009	1.3838 ± 0.0009	1.3804 ± 0.0009	–	–	–
[2], x1 = 0.7401	–	–	–	1.3851 ± 0.0009	1.3804 ± 0.0009	1.377 ± 0.0009	–	–	–
[2], x1 = 0.8477	–	–	–	1.381 ± 0.0009	1.376 ± 0.0009	1.3724 ± 0.0009	–	–	–
[2], x1 = 0.9355	–	–	–	1.3776 ± 0.0009	1.3725 ± 0.0009	1.3686 ± 0.0009	–	–	–
[2], x1 = 1	–	–	–	1.375 ± 0.0009	1.37 ± 0.0009	1.3657 ± 0.0009	–	–	–

CCCC(C)O (stereo not drawn) [pentan-2-ol] + CCC(C)=O
Conditions	mass density, 298.15 K [kg/m3]	mass density, 308.15 K [kg/m3]	mass density, 318.15 K [kg/m3]	refractive index, 298.15 K	refractive index, 308.15 K	refractive index, 318.15 K	viscosity, 298.15 K [mPa·s]	viscosity, 308.15 K [mPa·s]	viscosity, 318.15 K [mPa·s]
[1], x2 = 0	805.3 ± 0.56	797 ± 0.57	788.37 ± 0.58	–	–	–	3.478 ± 0.026	2.361 ± 0.018	1.772 ± 0.014
[1], x2 = 0.0824	804 ± 0.56	795.54 ± 0.57	786.83 ± 0.58	–	–	–	2.664 ± 0.02	1.778 ± 0.014	1.344 ± 0.011
[1], x2 = 0.1612	802.99 ± 0.56	794.34 ± 0.57	785.5 ± 0.58	–	–	–	2.066 ± 0.016	1.381 ± 0.011	1.094 ± 0.009
[1], x2 = 0.2401	802.04 ± 0.56	793.29 ± 0.57	784.32 ± 0.58	–	–	–	1.69 ± 0.013	1.105 ± 0.009	0.897 ± 0.008
[1], x2 = 0.3519	800.97 ± 0.56	791.97 ± 0.57	782.76 ± 0.59	–	–	–	1.347 ± 0.011	0.865 ± 0.008	0.721 ± 0.007
[1], x2 = 0.4396	800.31 ± 0.56	791.07 ± 0.57	781.66 ± 0.59	–	–	–	1.131 ± 0.009	0.731 ± 0.007	0.642 ± 0.006
[1], x2 = 0.5608	799.65 ± 0.56	790.15 ± 0.58	780.47 ± 0.59	–	–	–	0.886 ± 0.008	0.587 ± 0.006	0.514 ± 0.006
[1], x2 = 0.6494	799.34 ± 0.56	789.63 ± 0.58	779.91 ± 0.59	–	–	–	0.743 ± 0.007	0.518 ± 0.006	0.457 ± 0.006
[1], x2 = 0.7403	799.2 ± 0.56	789.23 ± 0.58	779.15 ± 0.59	–	–	–	0.623 ± 0.006	0.462 ± 0.006	0.407 ± 0.005
[1], x2 = 0.8491	799.26 ± 0.56	789.02 ± 0.58	778.67 ± 0.59	–	–	–	0.505 ± 0.006	0.406 ± 0.005	0.366 ± 0.005
[1], x2 = 0.9384	799.49 ± 0.56	789.09 ± 0.58	778.55 ± 0.59	–	–	–	0.436 ± 0.005	0.371 ± 0.005	0.338 ± 0.005
[2], x2 = 0	–	–	–	1.4032 ± 0.0009	1.399 ± 0.0009	1.395 ± 0.0009	–	–	–
[2], x2 = 0.0824	–	–	–	1.4014 ± 0.0009	1.3974 ± 0.0009	1.3937 ± 0.0009	–	–	–
[2], x2 = 0.1612	–	–	–	1.3998 ± 0.0009	1.3959 ± 0.0009	1.3923 ± 0.0009	–	–	–
[2], x2 = 0.2401	–	–	–	1.398 ± 0.0009	1.3941 ± 0.0009	1.3906 ± 0.0009	–	–	–
[2], x2 = 0.3519	–	–	–	1.3952 ± 0.0009	1.3914 ± 0.0009	1.3877 ± 0.0009	–	–	–
[2], x2 = 0.4396	–	–	–	1.3929 ± 0.0009	1.389 ± 0.0009	1.3852 ± 0.0009	–	–	–
[2], x2 = 0.5608	–	–	–	1.3895 ± 0.0009	1.3854 ± 0.0009	1.3813 ± 0.0009	–	–	–
[2], x2 = 0.6494	–	–	–	1.3868 ± 0.0009	1.3826 ± 0.0009	1.3782 ± 0.0009	–	–	–
[2], x2 = 0.7403	–	–	–	1.384 ± 0.0009	1.3796 ± 0.0009	1.375 ± 0.0009	–	–	–
[2], x2 = 0.8491	–	–	–	1.3803 ± 0.0009	1.3757 ± 0.0009	1.3711 ± 0.0009	–	–	–
[2], x2 = 0.9384	–	–	–	1.3772 ± 0.0009	1.3724 ± 0.0009	1.3679 ± 0.0009	–	–	–
